Measurements reported in patent US20100168216A1, “PROSTAGLANDIN PHARMACEUTICAL COMPOSITIONS” (CTG PHARMA S.R.L., priority 2007, published 2010).

Legend:
Thy-1 mRNA = test: Studies on rat retina: NMDA-induced loss of Thy-1 mRNA (neuroprotection); assay type: in vivo, Wistar rats; settings: Thy-1 mRNA levels (relative to rhodopsin), PEG value taken as 100; topical 5 μl of 2% in 50% PEG bilaterally twice a day, 2 days before and 7 days after intravitreal NMDA
Procedure: The method described by Osborne N. N. et al. (2002) previously reported was used. Briefly, two groups of 16 Wistar rats (200-250 g) received either 5 μl doses of topical test compound (2% in 50% polyethylene glycol-PEG) or 5 μl of vehicle bilaterally twice a day for 2 days. On the third day N-methyl-D-aspartate (NMDA) (5 μl in sterile water) was injected intra-vitreally into a single eye of each animal. The other eye was injected with sterile water. The animals were treated then with test compound or vehicle for 7 days. The Thy-1 antigen is associated with ganglion cells and intraocular injections of NMDA cause a loss of Thy-1 mRNA. The rats were then killed and the retinas removed for mRNA analysis for Thy-1 antigen. Results are expressed as % value to the Thy-1 mRNA levels (relative to rhodopsin) of the treated groups, taking PEG value as 100.

[1] = test system: IOP (Intraocular Pressure); test: Studies of IOP (intraocular pressure) on rabbit; assay type: in vivo, New Zealand albino rabbits; settings: IOP mmHg as % of PEG value (100); topical application of 2% test compound, measured 60 minutes after
Procedure: The method by Osborne N. N. et al. (2002) previously reported was used. Briefly, two groups of adult male New Zealand albino rabbits weighing 3-3.5 kg were used in the experiments. IOP was measured using a properly calibrated tonometer immediately after topical application of 1 drop of 0.4% benoxinate hydrochloride. The animals received a topical application of 2% of test compound or PEG and measures taken 60 minutes after. Results are expressed as % value to the IOP mmHg values of the treatment groups, taking PEG value as 100.

## O=C(CCCC=CC[C@@H]1[C@@H](CC[C@@H](O)CCc2ccccc2)[C@H](O)C[C@@H]1O)Oc1ccc(-c2cc(=S)ss2)cc1 (stereo in doubt) [Compound Example 2, (5Z)-7-[(1R,2R,3R,5S)-3,5-dihydroxy-2-[(3R)-3-hydroxy-5-phenylpentyl]cyclopentyl]-5-heptenoic acid 4-(3H-1,2-dithiole-3-thione-5-yl)-phenyl ester]
Thy-1 mRNA
  NMDA effects (%): 52%
[1]
  IOP values (%): 85%
